Laboratory results reported in patent US20060008512A1, “Composition and methods for improved animal performance” (priority 2004, published 2006).
Read-outs that look alike come from different tables or passages of the source. Marks after values point to notes of the source that are not given here.

Experiments:
[1] = tested on: Hy-Line W-36 White Leghorn hens; conditions: for Egg Shell, % (washed, dried): 6 & 10 d rooms combined; for Whole egg weight (mean±SEM): 4 day period after start of test diets
Description: Experiment 2. […] The photoperiod was 17 hours of light per day (0330 hours to 2030 hours).
The objective was to use T4 to humanely induce molting in hens that are continuously provided with ad libitum access to palatable feed meeting or exceeding all National Research Council (1994) standards. Developing a fully efficacious yet affordable molting protocol was predicated on determining the minimum effective level for T4 supplementation. Factors that potentially may affect the required level of T4 supplementation include: (1) uncertainty regarding the efficiency of T4 absorption by the gastrointestinal tract, (2) the possibility that continuous dietary ingestion of T4 could trigger substantially different biological responses when compared single daily injections, and (3) the likelihood that daily T4 intake would diminish in parallel with molt-related reductions in feed intake associated with cessation in egg production. A spontaneous and voluntary loss of appetite (anorexia) commonly accompanies seasonal molting and broodiness in a variety of avian species (Berry, 2003; Webster, 2003). Accordingly, the responses of hens to diets containing 10, 20, and 40 mg T4/kg, to bracket the anticipated range of T4 needed to cause an effective molt, were determined.

[2] = tested on: Bovans caged laying hens; assay: Experiment 6: molting of caged laying hens with dietary L-thyroxine or TIC plus MgO or sodium salicylate; assay type: in vivo, chicken; conditions: 10 hours of light daily
Source text: Experiment 6. Molting of Caged Laying with Dietary L-Thyroxine or Thyroactive Iodinated Casein Plus MgO or Sodium Salicylate.
In Experiment 6, a conventional feed withdrawal molting procedure was compared with 5 dietary thyroxine treatments. Body weight loss after 9 days was greater, days to 0% egg production (9 days) shorter, ovary plus oviduct weight numerically lighter on day 9 of treatment, but eggs collected on day 4 of treatment had thinner shells, in the feed withdrawal group.

[3] = tested on: White Leghorn hens; conditions: excessive injected levels, e.g. 243 micrograms/100 g body weight; cited from earlier work
[4] = 20 mg/kg of feed 10 d from day 5, Day 7
[5] = 20 mg/kg of feed 10 d from day 5, Day 10
[6] = 20 mg/kg of feed 10 d from day 5, Day 14
[7] = 20 mg/kg of feed 10 d from day 5, Day 30
[8] = 40 mg/kg of feed 6 d from day 5, Day 7
[9] = 40 mg/kg of feed 6 d from day 5, Day 10
[10] = 40 mg/kg of feed 6 d from day 5, Day 14
[11] = 40 mg/kg of feed 6 d from day 5, Day 30
[12] = 40 mg/kg of feed 10 d from day 5, Day 7
[13] = 40 mg/kg of feed 10 d from day 5, Day 10
[14] = 40 mg/kg of feed 10 d from day 5, Day 14
[15] = 40 mg/kg of feed 10 d from day 5, Day 30
[16] = 40 mg T4/kg diet, listed as L-T

With `N[C@@H](Cc1cc(I)c(Oc2cc(I)c(O)c(I)c2)c(I)c1)C(=O)O` [L-thyroxine, 3,5,3′,5′-tetraiodo-L-thyronine] the Hen-day egg production ([1]; 20 mg/kg of feed 6 d from day 5, day 28) was 89%, the Hen-day egg production ([1]; 20 mg/kg of feed 6 d from day 5, day 30) was 61% and the “Body weight (BW)” value ([1]; 20 mg/kg of feed 10 d from day 5, Day 1) was 1680 g. The “Body weight (BW)” value [1, 4] was 1533 g, the “Body weight change from day 1 (% BWC)” value [1, 4] was −8.8% and the “Body weight (BW)” value [1, 5] was 1431 g. The “Body weight change from day 1 (% BWC)” value [1, 5] was −14.8%, the “Body weight (BW)” value [1, 6] was 1373 g and the “Body weight change from day 1 (% BWC)” value [1, 6] was −18.3%. The “Body weight (BW)” value [1, 7] was 1448 g, the “Body weight change from day 1 (% BWC)” value [1, 7] was −13.8% and the “Egg Shell, % (washed, dried)” value ([1]; 20 mg/kg of feed, Days 2 to 4) was 8.38 (n = 10) %. The “Egg Shell, % (washed, dried)” value ([1]; 20 mg/kg of feed, Days 5 to 6) was 8.08 (n = 13) %, the “Egg Shell, % (washed, dried)” value ([1]; 20 mg/kg of feed, Days 7 to 8) was 5.56 (n = 2) % and the Egg production ([1]; 40 mg T4/kg diet for 10 days) was “cease completely”. The “Body weight (BW)” value ([1]; 40 mg/kg of feed 6 d from day 5, Day 1) was 1629 g, the “Body weight (BW)” value [1, 8] was 1443 g and the “Body weight change from day 1 (% BWC)” value [1, 8] was −11.4%. The “Body weight (BW)” value [1, 9] was 1350 g, the “Body weight change from day 1 (% BWC)” value [1, 9] was −17.1% and the “Body weight (BW)” value [1, 10] was 1396 g. For the same compound, the “Body weight change from day 1 (% BWC)” value [1, 10] was −14.3%, the “Body weight (BW)” value [1, 11] was 1481 g and the “Body weight change from day 1 (% BWC)” value [1, 11] was −9.1%. It also gave a Hen-day egg production ([1]; 40 mg/kg of feed 6 d from day 5, day 4) of 67%, a Hen-day egg production ([1]; 40 mg/kg of feed 6 d from day 5, day 6) of 42% and a Hen-day egg production ([1]; 40 mg/kg of feed 6 d from day 5, day 8) of 8%. For the same compound, the Hen-day egg production ([1]; 40 mg/kg of feed 6 d from day 5, day 10) was 0%, the Hen-day egg production ([1]; 40 mg/kg of feed 6 d from day 5, day 12) was 0% and the Hen-day egg production ([1]; 40 mg/kg of feed 6 d from day 5, day 14) was 0%. It also gave a Hen-day egg production ([1]; 40 mg/kg of feed 6 d from day 5, day 16) of 0%, a Hen-day egg production ([1]; 40 mg/kg of feed 6 d from day 5, day 18) of 8% and a Hen-day egg production ([1]; 40 mg/kg of feed 6 d from day 5, day 20) of 25%. The Hen-day egg production ([1]; 40 mg/kg of feed 6 d from day 5, day 22) was 25%, the Hen-day egg production ([1]; 40 mg/kg of feed 6 d from day 5, day 24) was 50% and the Hen-day egg production ([1]; 40 mg/kg of feed 6 d from day 5, day 26) was 17%. The Hen-day egg production ([1]; 40 mg/kg of feed 6 d from day 5, day 28) was 33%, the Hen-day egg production ([1]; 40 mg/kg of feed 6 d from day 5, day 30) was 33% and the “Body weight (BW)” value ([1]; 40 mg/kg of feed 10 d from day 5, Day 1) was 1572 g. The “Body weight (BW)” value [1, 12] was 1392 g, the “Body weight change from day 1 (% BWC)” value [1, 12] was −11.5% and the “Body weight (BW)” value [1, 13] was 1309 g. The “Body weight change from day 1 (% BWC)” value [1, 13] was −16.7%, the “Body weight (BW)” value [1, 14] was 1245 g and the “Body weight change from day 1 (% BWC)” value [1, 14] was −20.8%. The “Body weight (BW)” value [1, 15] was 1322 g, the “Body weight change from day 1 (% BWC)” value [1, 15] was −15.9% and the “Egg Shell, % (washed, dried)” value ([1]; 40 mg/kg of feed, Days 2 to 4) was 8.34 (n = 6) %. The “Egg Shell, % (washed, dried)” value ([1]; 40 mg/kg of feed, Days 5 to 6) was 7.82 (n = 6) %, the “Egg Shell, % (washed, dried)” value ([1]; 40 mg/kg of feed, Days 7 to 8) was 6.63 (n = 3) % and the Mortality ([1]; 10, 20, 40 mg T4/kg diets, 6 or 10 days) was “No mortal-ity occurred”. The “Whole egg weight (mean±SEM)” value ([1]; 10 ppm T4) was 62 ± 2 g, the “Time to reduced egg production” value ([1]; 20 and 40 mg T4/kg feed) was ≤ 4 days and the “Whole egg weight (mean±SEM)” value ([1]; 20 ppm T4) was 65 ± 2 g. The “Whole egg weight (mean±SEM)” value ([1]; 40 ppm T4) was 65 ± 3 g, the “Size of regressed reproductive tracts at necropsy” value ([1]; hens that had entirely ceased egg production after the test diets) was ≤ 50 % normal size and the “2&4 Jun. 05 Egg Weight” value ([2]; 20 mg T4/kg diet) was 58.68 g. The “4 Jun. 05 Shell + Membrane” value ([2]; 20 mg T4/kg diet) was 0.466^a mm, the “9 Jun. 05 (9th d Trt) Body Wt Change” value ([2]; 20 mg T4/kg diet) was −0.50^b lb and the “9 Jun. 05 Ovary + Oviduct” value ([2]; 20 mg T4/kg diet) was 4.59 % B Wt. The “25 May 05 Initial Body Wt” value ([2]; 20 mg T4/kg diet) was 3.49 lb, the “Days to 0% Egg Prod. (by Replicate)” value ([2]; 20 mg T4/kg diet) was 12.0^a Days and the “2&4 Jun. 05 Egg Weight” value ([2]; 40 mg T4/kg diet) was 60.17 g. For the same compound, the “4 Jun. 05 Shell + Membrane” value ([2]; 40 mg T4/kg diet) was 0.446^a mm, the “9 Jun. 05 (9th d Trt) Body Wt Change” value ([2]; 40 mg T4/kg diet) was −0.54 lb and the “9 Jun. 05 Ovary + Oviduct” value ([2]; 40 mg T4/kg diet) was 3.19 % B Wt. For the same compound, the “25 May 05 Initial Body Wt” value ([2]; 40 mg T4/kg diet) was 3.57 lb, the “Days to 0% Egg Prod. (by Replicate)” value ([2]; 40 mg T4/kg diet) was 11 days and the “9 Jun. 05 (9th d Trt) Body Wt Change” value [2, 16] was −0.60^b lb. The “Days to 0% Egg Prod. (by Replicate)” value [2, 16] was 11.0^a Days and the Mortality [3] was 47%.
